In ChEMBL document CHEMBL2440041, “5-Deazaflavin derivatives as inhibitors of p53 ubiquitination by HDM2” (Bioorg Med Chem, 2013):

Biological target: E3 ubiquitin-protein ligase Mdm2 (Homo sapiens, UniProt Q00987)
Sequence (Q00987 whole entry): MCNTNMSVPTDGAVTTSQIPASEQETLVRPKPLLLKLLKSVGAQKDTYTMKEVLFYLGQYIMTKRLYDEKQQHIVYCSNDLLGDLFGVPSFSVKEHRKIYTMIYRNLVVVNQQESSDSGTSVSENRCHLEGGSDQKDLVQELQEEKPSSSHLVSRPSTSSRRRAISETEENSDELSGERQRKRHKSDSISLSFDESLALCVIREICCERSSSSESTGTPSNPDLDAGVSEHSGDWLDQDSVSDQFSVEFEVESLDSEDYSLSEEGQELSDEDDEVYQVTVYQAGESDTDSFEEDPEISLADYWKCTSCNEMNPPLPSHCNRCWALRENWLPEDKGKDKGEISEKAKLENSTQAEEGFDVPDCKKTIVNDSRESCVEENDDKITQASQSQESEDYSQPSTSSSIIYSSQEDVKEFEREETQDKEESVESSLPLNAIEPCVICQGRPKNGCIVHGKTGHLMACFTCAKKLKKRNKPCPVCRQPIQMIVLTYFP
Description: Inhibition of GST-tagged HDM2 (unknown origin) assessed as p53 ubiquitination by Western blot analysis

Row | SMILES | IC50 [µM]
1 | O=c1nc2n(-c3ccc(F)cc3)c3c(C(F)(F)F)cccc3cc-2c(=O)[nH]1 | 13.1
2 | O=c1nc2n(-c3ccc(Cl)cc3)c3cccc(Cl)c3cc-2c(=O)[nH]1 | > 100
3 | O=c1nc2n(-c3ccccc3F)c3c(C(F)(F)F)cccc3cc-2c(=O)[nH]1 | 19.6
4 | O=c1nc2n(-c3ccc(Cl)cc3)c3ccc([N+](=O)[O-])cc3cc-2c(=O)[nH]1 | > 75
5 | O=c1nc2n(-c3ccccc3)c3c(Cl)cccc3cc-2c(=O)[nH]1 | > 100
6 | O=c1nc2n(-c3ccc(Cl)cc3)c3cc(C(F)(F)F)ccc3cc-2c(=O)[nH]1 | > 100
7 | O=c1nc2n(-c3ccc(Cl)cc3)c3cccc(C(F)(F)F)c3cc-2c(=O)[nH]1 | > 100
8 | O=c1nc2n(-c3ccccc3F)c3cc(C(F)(F)F)ccc3cc-2c(=O)[nH]1 | > 100
9 | O=c1nc2n(-c3ccc(Cl)cc3)c3c([N+](=O)[O-])cccc3cc-2c(=O)[nH]1 | > 50
10 | O=c1nc2n(-c3ccccc3F)c3c([N+](=O)[O-])cccc3cc-2c(=O)[nH]1 | > 100
11 | O=c1nc2n(-c3ccccc3)c3c(Br)cccc3cc-2c(=O)[nH]1 | > 100
12 | Cc1ccc2cc3c(=O)[nH]c(=O)nc-3n(-c3ccc(Cl)cc3)c2c1 | > 100
13 | O=c1nc2n(-c3cccc(F)c3)c3c(Cl)cccc3cc-2c(=O)[nH]1 | > 100
14 | O=c1nc2n(-c3cccc(Cl)c3)c3c(Cl)cccc3cc-2c(=O)[nH]1 | > 100
15 | O=c1nc2n(-c3ccccc3F)c3ccc(Cl)cc3cc-2c(=O)[nH]1 | > 100
16 | O=c1nc2n(Cc3ccccc3)c3c(C(F)(F)F)cccc3cc-2c(=O)[nH]1 | > 100
17 | O=c1nc2n(-c3ccc(Cl)cc3)c3ccc(C(F)(F)F)cc3cc-2c(=O)[nH]1 | > 100
